{
  "source": "patent US6933108B2",
  "about": "(priority 1999, dated 2005)",
  "key": {"Ampho luciferase virus": {"tested_on": "Ampho luciferase virus", "type": "cell-based, amphotropic murine leukemia virus"}, "EBO-Z pseudotype virus": {"tested_on": "EBO-Z pseudotype virus", "type": "cell-based, Ebola-Zaire virus"}, "MBG pseudotype virus": {"tested_on": "MBG pseudotype virus", "type": "cell-based, Marburg virus"}, "FR-α": {"target": "FR-α (Homo sapiens, UniProt P15328)", "sequence (P15328 25-234)": "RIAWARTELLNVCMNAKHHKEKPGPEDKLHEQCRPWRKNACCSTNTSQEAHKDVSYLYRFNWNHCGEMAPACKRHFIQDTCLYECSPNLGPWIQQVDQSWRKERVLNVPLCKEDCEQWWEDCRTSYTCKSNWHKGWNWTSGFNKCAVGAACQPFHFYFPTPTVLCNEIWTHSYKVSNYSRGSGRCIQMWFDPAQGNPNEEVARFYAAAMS", "details": "cited from earlier work"}, "[1]": {"tested_on": "Filoviruses, including the Marburg and Ebola viruses", "details": "cited from earlier work"}},
  "note": "Entries after “also recorded” stand apart in the source; their conditions may differ.",
  "data": [
    {"smiles": "Nc1nc2ncc(CNc3ccc(C(=O)N[C@@H](CCC(=O)O)C(=O)O)cc3)nc2c(=O)[nH]1", "note": "[folic acid]", "values": [
      {"measurement": "entry by Ampho luciferase pseudotype", "setting": "Ampho luciferase virus", "result": "very slight alteration; also recorded: did not significantly decrease; also recorded: not Ampho"},
      {"measurement": "entry by EBO-Z virus", "setting": "EBO-Z pseudotype virus", "result": "inhibited significantly; also recorded: specifically inhibited"},
      {"measurement": "entry by MBG luciferase virus", "setting": "MBG pseudotype virus", "result": "specifically inhibited"},
      {"measurement": "reduction of MBG virus entry", "setting": "MBG pseudotype virus", "result": "~80", "unit": "%"}
    ]},
    {"smiles": "CN1c2c(nc(N)[nH]c2=O)NCC1CNc1ccc(C(=O)N[C@@H](CCC(=O)O)C(=O)O)cc1", "note": "(stereo partly drawn) [5-methyltetrahydrofolic acid]", "values": [
      {"measurement": "binding affinity to FR-α", "setting": "FR-α", "result": "high affinity"}
    ]},
    {"smiles": "NC(=O)c1ncn([C@@H]2O[C@H](CO)[C@@H](O)[C@H]2O)n1", "note": "[ribavirin]", "values": [
      {"measurement": "in vitro effect against filoviruses", "setting": "[1]", "result": "no in vitro effect"}
    ]}
  ]
}
